Several values for one entry are separate records, joined by “and”; a condition that tells them apart may be missing. Equal entries are not always repeated. Results filed as inconclusive are left out.

Data on 17 compounds can be found in PubChem BioAssay AID206 (DTP/NCI, 2004).

For this assay, the system named is nude mice, HT29 intrarenal xenograft, tumor weight T/C. The assay is described as follows: NCI In Vivo Anticancer Drug Screen. Data for tumor model HT29;CX-1 Human Adenocarcinoma (MER+) (intrarenal inoculation) in NU/NU Swiss (nude) mice. As to conditions: endpoint: mean tumor weight change, higher = larger tumour. In short, it runs like this: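 Mice with transplanted tumors are dosed with compound while controls get vehicle only. Survival or tumor burden is then assessed per group, and the treated value is expressed relative to control.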

Setting [1] is: dose: 100.0 mg/kg/injection, schedule: Q04DX004 (sc), vehicle: saline with Tween-80.
Where [2] appears, read: dose: 200.0 mg/kg/injection, schedule: Q04DX004 (sc), vehicle: saline with Tween-80.
Where [3] appears, read: dose: 150.0 mg/kg/injection, schedule: Q04DX004 (sc), vehicle: Klucel (hydroxypropylcellulose) (HPC).
Where [4] appears, read: dose: 300.0 mg/kg/injection, schedule: Q04DX004 (sc), vehicle: Klucel (hydroxypropylcellulose) (HPC).
Setting [5] is: dose: 600.0 mg/kg/injection, schedule: Q04DX004 (sc), vehicle: Klucel (hydroxypropylcellulose) (HPC).

As for `O=C(O)C(O)C(O)C1[O][Sb][O]C1C(=O)O` (stereo not drawn), the T/C (dose: 37.5 mg/kg/injection, schedule: Q04DX004 (sc), vehicle: saline) was 100 % of control; the T/C (dose: 75.0 mg/kg/injection, schedule: Q04DX004 (sc), vehicle: saline) was 73 % of control; the T/C (dose: 150.0 mg/kg/injection, schedule: Q04DX004 (sc), vehicle: saline) was 93 % of control.
`Nc1ncn(C2OC(CO)C(O)C2O)c(=O)n1` (stereo not drawn): the T/C was 212 % of control (dose: 0.19 mg/kg/injection, schedule: Q01DX010 (sc), vehicle: saline); 172 % of control (dose: 0.38 mg/kg/injection, schedule: Q01DX010 (sc), vehicle: saline); 96 % of control (dose: 0.75 mg/kg/injection, schedule: Q01DX010 (sc), vehicle: saline); 66 % of control (dose: 5.0 mg/kg/injection, schedule: Q04DX004 (sc), vehicle: saline); 48 % of control and 49 % of control (dose: 10.0 mg/kg/injection, schedule: Q04DX004 (sc), vehicle: saline); 62 % of control (dose: 100.0 mg/kg/injection, schedule: Q04DX004 (sc), vehicle: saline). In addition, the T/C reads like this: (dose: 200.0 mg/kg/injection, schedule: Q04DX004 (sc), vehicle: saline) 85 % of control; (dose: 200.0 mg/kg/injection, schedule: Q04DX004 (sc), vehicle: suspension in saline) 98 % of control; (dose: 300.0 mg/kg/injection, schedule: Q04DX004 (sc), vehicle: suspension in saline) 24 % of control; (dose: 400.0 mg/kg/injection, schedule: Q04DX004 (sc), vehicle: saline) 38 % of control; (dose: 600.0 mg/kg/injection, schedule: Q04DX004 (sc), vehicle: suspension in saline) 79 % of control; (dose: 800.0 mg/kg/injection, schedule: Q04DX004 (sc), vehicle: saline) 7 % of control. Besides, the T/C (dose: 800.0 mg/kg/injection, schedule: Q04DX004 (sc), vehicle: suspension in saline) was 29 % of control and 30 % of control; the T/C (dose: 1200.0 mg/kg/injection, schedule: Q04DX004 (sc), vehicle: suspension in saline) is 7 % of control; the T/C (dose: 1600.0 mg/kg/injection, schedule: Q04DX004 (sc), vehicle: suspension in saline) was 11 % of control.
Take `C=C1C(=O)OC2CC(C)C3C4OC4C(O)C3(C)C(O)C12` (stereo not drawn): the T/C reads like this: (dose: 50.0 mg/kg/injection, schedule: Q04DX004 (sc), vehicle: saline with Tween-80) 99 % of control; under setting [1], 121 % of control; under setting [2], 107 % of control.
For the compound `CN(C(=S)S(=O)(=O)C12CC3CC(CC(C3)C1)C2)c1ccccc1`, the T/C by setting is: (dose: 12.5 mg/kg/injection, schedule: Q04DX004 (sc), vehicle: Klucel (hydroxypropylcellulose) (HPC)) 99 % of control; (dose: 25.0 mg/kg/injection, schedule: Q04DX004 (sc), vehicle: Klucel (hydroxypropylcellulose) (HPC)) 113 % of control; (dose: 400.0 mg/kg/injection, schedule: Q04DX004 (sc), vehicle: Klucel (hydroxypropylcellulose) (HPC)) 107 % of control and 123 % of control; (dose: 800.0 mg/kg/injection, schedule: Q04DX004 (sc), vehicle: Klucel (hydroxypropylcellulose) (HPC)) 197 % of control.
In the case of `Cc1ccc2c(c1)C(=O)N(CC[P+](c1ccccc1)(c1ccccc1)c1ccccc1)C2=O`, the T/C by setting is: (dose: 3.13 mg/kg/injection, schedule: Q01DX010 (sc), vehicle: Klucel (hydroxypropylcellulose) (HPC)) 70 % of control; (dose: 6.25 mg/kg/injection, schedule: Q01DX010 (sc), vehicle: Klucel (hydroxypropylcellulose) (HPC)) 37 % of control; (dose: 12.5 mg/kg/injection, schedule: Q01DX010 (sc), vehicle: Klucel (hydroxypropylcellulose) (HPC)) 86 % of control; (dose: 25.0 mg/kg/injection, schedule: Q01DX010 (sc), vehicle: Klucel (hydroxypropylcellulose) (HPC)) 75 % of control.
With `C1CN2CCC1CC2`, the T/C is, setting by setting: (dose: 9.38 mg/kg/injection, schedule: Q04DX004 (sc), vehicle: saline with Tween-80) 65 % of control; (dose: 18.75 mg/kg/injection, schedule: Q04DX004 (sc), vehicle: saline with Tween-80) 82 % of control.
In the case of `O=C1[C@H]2CCC[C@H]2[C@H]2CCC[C@@H]12`, the T/C reads like this: under setting [1], 67 % of control; under setting [2], 44 % of control; (dose: 400.0 mg/kg/injection, schedule: Q04DX004 (sc), vehicle: saline with Tween-80) 83 % of control; (dose: 800.0 mg/kg/injection, schedule: Q04DX004 (sc), vehicle: saline with Tween-80) 82 % of control.
`CC(C)NC(=O)N(CCCCBr)N=O`: the T/C is, setting by setting: (dose: 75.0 mg/kg/injection, schedule: Q04DX004 (sc), vehicle: Klucel (hydroxypropylcellulose) (HPC)) 174 % of control; under setting [3], 182 % of control; under setting [4], 91 % of control; under setting [5], 108 % of control.
`COc1ccc(/C=C/C(=O)c2cc(C(=O)O)c(OC)cc2OC)cc1OC`: the T/C is 82 % of control (dose: 225.0 mg/kg/injection, schedule: Q04DX004 (sc), vehicle: suspension in saline); 102 % of control (dose: 450.0 mg/kg/injection, schedule: Q04DX004 (sc), vehicle: suspension in saline); 88 % of control (dose: 900.0 mg/kg/injection, schedule: Q04DX004 (sc), vehicle: suspension in saline).
For the compound `O=C1c2cccc3cc([N+](=O)[O-])cc(c23)C(=O)N1CCN1CCCC1`, the T/C reads like this: (dose: 18.0 mg/kg/injection, schedule: Q04DX004 (sc), vehicle: saline with Tween-80) 110 % of control; (dose: 36.0 mg/kg/injection, schedule: Q04DX004 (sc), vehicle: saline with Tween-80) 115 % of control.
For `C[n+]1ccc(Nc2ccc(NC(=O)c3ccc(Nc4cc[n+](C)c5ccc(N)cc45)cc3)cc2)cc1`, the T/C was 74 % of control (dose: 8.0 mg/kg/injection, schedule: Q04DX004 (sc), vehicle: distilled water + Tween-80); 211 % of control (dose: 16.0 mg/kg/injection, schedule: Q04DX004 (sc), vehicle: distilled water + Tween-80); 118 % of control (dose: 25.0 mg/kg/injection, schedule: Q04DX004 (sc), vehicle: distilled water + Tween-80); 303 % of control (dose: 32.0 mg/kg/injection, schedule: Q04DX004 (sc), vehicle: distilled water + Tween-80); 51 % of control (dose: 50.0 mg/kg/injection, schedule: Q04DX004 (sc), vehicle: distilled water + Tween-80).
For the compound `CC1=CC(=Nc2ccc(N(CCCl)CCCl)cc2)C=C(C)C1=O`, the T/C reads like this: under setting [3], 71 % of control; under setting [4], 76 % of control; under setting [5], 53 % of control.
Regarding `O=C(O)C1CC(c2ccccc2)=NN1c1ccccc1` (stereo not drawn), the T/C is, setting by setting: (dose: 75.0 mg/kg/injection, schedule: Q04DX004 (sc), vehicle: water) 76 % of control; (dose: 150.0 mg/kg/injection, schedule: Q04DX004 (sc), vehicle: water) 79 % of control; (dose: 300.0 mg/kg/injection, schedule: Q04DX004 (sc), vehicle: water) 74 % of control.
For `Cc1c2ccc3ccccc3c2c[n+]2ccccc12`, the T/C was 84 % of control (dose: 3.75 mg/kg/injection, schedule: Q04DX004 (sc), vehicle: Klucel (hydroxypropylcellulose) (HPC)); 66 % of control (dose: 7.5 mg/kg/injection, schedule: Q04DX004 (sc), vehicle: Klucel (hydroxypropylcellulose) (HPC)); 50 % of control (dose: 15.0 mg/kg/injection, schedule: Q04DX004 (sc), vehicle: Klucel (hydroxypropylcellulose) (HPC)); 41 % of control (dose: 30.0 mg/kg/injection, schedule: Q04DX004 (sc), vehicle: Klucel (hydroxypropylcellulose) (HPC)).
For the compound `C[C@@]12C(=O)OC(=O)[C@]1(C)[C@H]1CC[C@@H]2O1`, the T/C by setting is: (dose: 1.25 mg/kg/injection, schedule: Q04DX004 (sc), vehicle: Klucel (hydroxypropylcellulose) (HPC)) 87 % of control; (dose: 2.5 mg/kg/injection, schedule: Q04DX004 (sc), vehicle: Klucel (hydroxypropylcellulose) (HPC)) 75 % of control; (dose: 5.0 mg/kg/injection, schedule: Q04DX004 (sc), vehicle: Klucel (hydroxypropylcellulose) (HPC)) 89 % of control.
Regarding `CC/C(=C(/CC)c1ccc(O)cc1)c1ccc(O)cc1`, the T/C is, setting by setting: (dose: 150.0 mg/kg/injection, schedule: Q04DX004 (sc), vehicle: saline with Tween-80) 70 % of control; (dose: 300.0 mg/kg/injection, schedule: Q04DX004 (sc), vehicle: saline with Tween-80) 69 % of control.
As to `O=P1(N(CCCl)CCCl)NCCCO1` (stereo not drawn), the T/C (dose: 40.0 mg/kg/injection, schedule: Q04DX004 (ip), vehicle: saline) was 75 % of control; the T/C (dose: 50.0 mg/kg/injection, schedule: Q01DX010 (sc), vehicle: saline) is 58 % of control; the T/C (dose: 60.0 mg/kg/injection, schedule: Q04DX004 (ip), vehicle: saline) was 53 % of control; the T/C (dose: 90.0 mg/kg/injection, schedule: Q04DX004 (ip), vehicle: saline) was 26 % of control.
